What was measured:
[1] = system: Pferdethrombin; experiment: Thrombin time (clotting of human citrate plasma with thrombin reagent, ball coagulometer); type: biochemical, Pferd; settings: thrombin time as difference to control (control ca. 24 Sek.), test stopped at 5 Min.; for TT2.5: 2.5 µM in final volume; for TT25: 25 µM in final volume; for TT250: 250 µM in final volume
Experimental: Ein in der klinischen Gerinnungsdiagnostik gebräuchlicher Test ist die Thrombinzeit. Dieser Parameter erfaßt die Thrombinwirkung auf Fibrinogen und die Gerinnselbildung. Inhibitoren von Thrombin bewirken eine Verlängerung der Thrombinzeit.
Zur Plasmagewinnung wurden 9 Teile frisches Blut gesunder Spender mit einem Teil Natriumcitratlösung (0.11 Mol/l) gemischt und bei ca. 3000 U/min 10 Min. bei Raumtemperatur zentrifugiert. Das Plasma wurde abpipettiert und kann bei Raumtemperatur ca. 8 h aufbewahrt werden.
200 µl Citratplasma wurden in einem Kugelkoagulometer (KC 10 der Firma Amelung) 2 Min. bei 37 °C inkubiert, Zu 190 µl vortemperiertem Thrombin-Reagenz (Boehringer Mannheim GmbH; enthält ca. 3 U/ml Pferdethrombin und 0.0125 M Ca^++) gab man 10 µl Dimethylsulfoxid (DMSO) oder eine Lösung der Wirksubstanz in DMSO. Mit Zugabe dieser 200 µl Lösung zum Plasma wurde eine Stoppuhr gestartet und der Zeitpunkt bis zum Eintritt der Gerinnung bestimmt. Die Thrombinzeit betrug bei den Kontrollmessungen ca. 24 Sek. und wurde durch die Wirksubstanzen deutlich verlängert. War die Thrombinzeit in Gegenwart einer Beispielverbindung länger als 5 Min.. wurde der Versuch abgebrochen.
In der folgenden Tabelle sind die gemessenen Thrombinzeiten in Sekunden als Differenz zur Kontrolle angegeben. Die Konzentrationen der Wirksubstanzen betrugen im Endvolumen 250 µM (TT250), 25 µM (TT25) und 2.5 µM (TT2.5).

[2] = target: T1, humanem α-Thrombin (Homo sapiens, UniProt P00734); experiment: Thrombin inhibition, kinetic measurement with chromogenic substrate S-2238; type: biochemical; settings: 0,1 M phosphate buffer, pH = 7.5, 25 °C, substrate H-(D)-Phe-Pro-Arg-pNA (S-2238)
T1 construct: humanem α-Thrombin (Sigma, spezifische Aktivität = 2150 NIH-units/mg); purchased Sigma
Experimental: Die kinetischen Messungen wurden in 0,1 M Phosphatpuffer, der 0.2 M Kochsalz und 0.5 % Polyethylenglycol 6000 enthielt. bei einem pH = 7.5 und 25 °C mit dem Substrat H-(D)-Phe-Pro-Arg-pNA (S-2238 Kabi) und humanem α-Thrombin (Sigma, spezifische Aktivität = 2150 NIH-units/mg) in Polystyrol-Halbmikroküvetten in einem Gesamtvolumen von 1 ml durchgeführt.
In einem Vorversuch wurde mit jeder Wirksubstanz bestimmt, ob sie Thrombin schnell oder langsam inhibiert. Dazu wurde die Reaktion einmal durch Zugabe von 0.03 NIH-units Thrombin zu einer 100 µM-Lösung des Substrats und des Wirkstoffs gestartet. In einem zweiten Versuch wurde Substrat zu einer 5 Min. inkubierten Lösung des Thrombins und des Wirkstoffs gegeben. Die Zunahme der Konzentration von p-Nitroanilin mit der Zeit wurde spektroskopisch (UV-VIS-Spektrophotometer Lambda-2 der Firma Perkin-Elmer) bei 405 nm 12 Min. verfolgt. Da die bei beiden Versuchen erhaltenen Messkurven linear und parallel waren, handelt es sich bei den Wirkstoffen der folgenden Tabelle um schnelle Thrombin-Inhibitoren. Die Inhibitionskonstanten Ki wurden dann wie folgt bestimmt. Das Substrat wurde in den Konzentrationen 100 µM, 50 µM. 30 µM, 20 µM eingesetzt und bei jeder Substratkonzentration eine Messung ohne Inhibitor und drei Messungen in Gegenwart unterschiedlicher Konzentrationen der in der folgenden Tabelle aufgeführten Inhibitoren durchgeführt. Die Reaktionen wurden durch Zugabe von Thrombin gestartet. Die Zunahme der Extinktion bei 405 nm durch das entstehende p-Nitroanilin über einen Zeitraum von 12 Min. verfolgt. Im Abstand von 20 Sek. wurden Meßpunkte (Zeit vs. Extinktion) auf einen PC übertragen. Aus den Daten wurden die Geschwindigkeiten Vo (Extinktionsänderung pro Sek.: Messungen ohne Inhibitor) und Vi (Messungen mit Inhibitor) durch lineare Regression bestimmt. Benutzt wurde nur der Teil jeder Messung. bei dem sich die Substratkonzentration um weniger als 15 % vermindert hatte. Aus einer Meßreihe (konstante Inhibitorkonzentration, variable Substratkonzentrationen) bestimmte man Km' und Vmax durch nichtlinearen Fit auf die Gleichung V =(Vmax ∗ [S])/([S] + Km ') [formula]
Aus den gesamten Meßreihen berechnete man schließlich Ki durch nichtlinearen Fit auf die Gleichung V =(Vmax ∗ [S])/(Km ∗ (1 + […] ) + [S]) [formula] Die Michaeliskonstante Km betrug in allen Messungen 3.8 ± 2 µM. Die Inhibitionskonstanten Ki der Wirksubstanzen sind in der folgenden Tabelle in der Einheit µM angegeben.

Structure (SMILES) | TT2.5 [1] | TT25 [1] | TT250 [1] | Ki [2]
COc1ccc(OCCNc2ccncc2)cc1NS(=O)(=O)c1ccccc1 [Beispiel 59, N-{2-Methoxy-5-[2-(pyridin-4-ylamino)-ethoxy]-phenyl}-benzolsulfonamid] | 0 Sekunden | 8 Sekunden | 53 Sekunden | 6000 nM
O=S(=O)(c1ccccc1)N(Cc1ccccc1)c1cccc(OCCNc2ccncc2)c1 [Beispiel 15, N-Benzyl-N-{3-[2-(pyridin-4-ylamino)-ethoxy]-phenyl}-benzolsulfonamid] | 15 Sekunden | 144 Sekunden | 270 Sekunden | 130 nM
COc1cc(OCCNc2ccncc2)cc(N(C)S(=O)(=O)c2ccccc2)c1 [Beispiel 83, N-Methyl-N-{3-[2-(pyridin-4-ylamino)-ethoxy]-5-methoxy-phenyl}-benzolsulfonamid] | 48 Sekunden | 192 Sekunden | 300 Sekunden | 100 nM
O=S(=O)(Nc1cc(Br)cc(NCCNc2ccncc2)c1)c1ccccc1 [Beispiel 89, N-{3-[2-(Pyridin-4-ylamino)-ethylamino]-5-brom-phenyl}-benzolsulfonamid] | 6 Sekunden | 38 Sekunden | 132 Sekunden | 1000 nM
Cc1cc(OCCNc2ccncc2)cc(N(C)S(=O)(=O)c2ccccc2OCC(=O)O)c1 [Beispiel 124] | 104 Sekunden | 300 Sekunden | 300 Sekunden | 250 nM
O=S(=O)(Nc1cccc(OCCNc2ccncc2)c1)C1CCCCC1 [Beispiel 8, N-{3-[2-(Pyridin-4-ylamino)-ethoxy]-phenyl}-cyclohexan-sulfonamid] | 13 Sekunden | 58 Sekunden | 288 Sekunden | 1000 nM
O=S(=O)(Nc1cccc(OCCNc2ccncc2)c1)c1cccc2ccccc12 [Beispiel 2, N-{3-[2-(Pyridin-4-ylamino)-ethoxy]-phenyl}-1-naphthalin-sulfonamid] | 6 Sekunden | 40 Sekunden | 150 Sekunden | 300 nM
O=S(=O)(c1cc(Cl)cc(NCCNc2ccncc2)c1)N(Cc1ccccc1)c1ccccc1 [Beispiel 86, 3-Chlor-N-benzyl-N-phenyl-5-[2-(pyridin-4-ylamino)-ethylamino]-benzolsulfonamid] | 11 Sekunden | 167 Sekunden | 300 Sekunden | 40 nM
Cc1cc(OCCNc2ccncc2)cc(N(CCCCCC(=O)O)S(=O)(=O)c2ccccc2)c1 [Beispiel 108, 6-(Benzolsulfonyl-{3-methyl-5-[2-(pyridin-4-yl-amino)-ethoxy]-phenyl}-amino)-hexansäure] | 62 Sekunden | 300 Sekunden | 300 Sekunden | 55 nM
O=S(=O)(Nc1cc(NCCNc2ccncc2)cc(C(F)(F)F)c1)c1ccccc1 [Beispiel 79, N-{3-[2-(Pyridin-4-ylamino)-ethylamino]-5-trifluormethyl-phenyl}-benzolsulfonamid] | 0 Sekunden | 8 Sekunden | 30 Sekunden | 5000 nM
Cc1cc(OCCNc2ccncc2)cc(N(CCN)S(=O)(=O)c2ccccc2)c1 [Beispiel 100, N-(2-Aminoethyl)-N-{3-[2-(pyridin-4-ylamino)-ethoxy]-5-methyl-phenyl}-benzolsulfonamid] | 186 Sekunden | 300 Sekunden | 300 Sekunden | 83 nM
CCc1cc(OCCNc2ccncc2)cc(OS(=O)(=O)c2ccccc2)c1 [Beispiel 90, Benzolsulfonsäure-3-ethyl-5-[2-(pyridin-4-ylamino)-ethoxy]-phenyl-ester] | 125 Sekunden | 300 Sekunden | 300 Sekunden | 24 nM
CCOC(=O)N(c1cc(C)cc(OCCNc2ccncc2)c1)S(=O)(=O)c1ccccc1OC [Beispiel 125, N-Ethoxycarbonyl-N-{3-methyl-5-[2-(pyridin-4-ylamino)-ethoxy]-phenyl}-2-methoxybenzolsulfonamid] | 73 Sekunden | 273 Sekunden | 300 Sekunden | 150 nM
Cc1cc(OCCN(C)c2ccncc2)cc(OS(=O)(=O)c2ccccc2Cl)c1 [Beispiel 72, 2-Chlorbenzolsulfonsäure-5-methyl-3-[2-(N-methyl-pyridin-4-ylamino)-ethoxy]-phenylester] | 159 Sekunden | 300 Sekunden | 300 Sekunden | 24 nM
Cc1ccc(OCCNc2ccncc2)cc1NS(=O)(=O)c1ccccc1 [Beispiel 60, N-{2-Methyl-5-[2-(pyridin-4-ylamino)-ethoxy]-phenyl}-benzolsulfonamid] | 13 Sekunden | 62 Sekunden | 137 Sekunden | 600 nM
CC(CNc1ccncc1)Oc1cccc(NS(=O)(=O)c2ccccc2)c1 (centres unmarked) [Beispiel 10, N-{3-[1-Methyl-2-(pyridin-4-ylamino)-ethoxy]-phenyl}-benzolsulfonamid] | 7 Sekunden | 43 Sekunden | 157 Sekunden | 3000 nM
COc1cc(OCCNc2ccncc2)cc(S(=O)(=O)N(C)c2ccccc2)c1 [Beispiel 80, 3-Methoxy-N-methyl-N-phenyl-5-[2-(pyridin-4-ylamino)-ethoxy]-benzolsulfonamid] | 44 Sekunden | 213 Sekunden | 300 Sekunden | 150 nM
